Experiment: Antimicrobial efficacy testing (AET) of atropine sulfate eye drops (0.01%) with different BAK concentrations
Method: The concentration of benzalkonium chloride (BAK) in atropine sulfate eye drops was verified via antimicrobial efficacy testing (AET). The lyophilized preparation was reconstituted with 8 mL of reconstituted diluent including BAK at concentrations of 100 ppm, 80 ppm, 50 ppm, 25 ppm, or 0 ppm to obtain atropine sulfate eye drops (0.01%) including benzalkonium chloride at different concentrations.

[1] = BAK 0 ppm in atropine sulfate eye drops (0.01%)
[2] = BAK 25 ppm in atropine sulfate eye drops (0.01%)
[3] = BAK 50 ppm in atropine sulfate eye drops (0.01%)
[4] = BAK 80 ppm in atropine sulfate eye drops (0.01%)
[5] = BAK 100 ppm in atropine sulfate eye drops (0.01%)

In the case of benzalkonium chloride [BAK], the “AET, Chinese Pharmacopoeia Method, Criteria A&B” value [1] is reported as “Fail”, the “AET, European Pharmacopoeia Method, Criteria A&B” value [1] is reported as “Fail” and the “AET, United States Pharmacopeia Method” value [1] is reported as “Fail”. The “AET, Chinese Pharmacopoeia Method, Criteria A&B” value [2] was “Pass”, the “AET, European Pharmacopoeia Method, Criteria A&B” value [2] was “Pass” and the “AET, United States Pharmacopeia Method” value [2] was “Pass”. The “AET, Chinese Pharmacopoeia Method, Criteria A&B” value [3] was “Pass”, the “AET, European Pharmacopoeia Method, Criteria A&B” value [3] was “Pass” and the “AET, United States Pharmacopeia Method” value [3] was “Pass”. The “AET, Chinese Pharmacopoeia Method, Criteria A&B” value [4] was “Pass”, the “AET, European Pharmacopoeia Method, Criteria A&B” value [4] was “Pass” and the “AET, United States Pharmacopeia Method” value [4] was “Pass”. The “AET, Chinese Pharmacopoeia Method, Criteria A&B” value [5] was “Pass”, the “AET, European Pharmacopoeia Method, Criteria A&B” value [5] was “Pass” and the “AET, United States Pharmacopeia Method” value [5] was “Pass”. The “results of the antibacterial efficacy testing” value (all tested BAK concentrations (100, 80, 50, 25 ppm) except 0 ppm) was “met the criteria” and the “antibacterial efficacy criteria "A", Chinese Pharmacopoeia, during long-term storage” value (benzalkonium chloride concentration greater than 70 ppm) was “criteria requirements of antibacterial efficacy “A” were met”.

— patent US20250288575A1, “EYE DROP COMPOSITION FOR PREVENTION OR TREATMENT OF OPHTHALMIC DISEASES AND PREPARATION METHOD THEREFOR” (OCUMENSION THERAPEUTICS (SUZHOU) CO., LTD., priority 2021, published 2025)
